Entries after “also recorded” stand apart in the source; their conditions may differ. Like-named read-outs stand apart in the source and are kept apart here.
Experiments:
[1] = tested on: A/Singapore/GP1908/2015 strain; format: in vivo, BALB/c mouse; conditions: subcutaneous, 1 μg adjuvant per shot, after the second administration; rank among MIP01, adjuvant-free and CPP01 groups (FIG. 2)
[2] = tested on: A/Singapore/GP1908/2015 strain; format: in vivo, BALB/c mouse; conditions: transnasal, 10 μg adjuvant per shot; rank among MIP01, adjuvant-free and CPP01 groups (FIG. 4A)
[3] = tested on: B/Maryland/15/2016 strain; format: in vivo, BALB/c mouse; conditions: transnasal, 10 μg adjuvant per shot; rank among MIP01, adjuvant-free and CPP01 groups (FIG. 4B)
[4] = tested on: A/Singapore/GP1908/2015 strain; format: in vivo, BALB/c mouse; conditions: subcutaneous, both first and second administrations
[5] = tested on: B/Maryland/15/2016 strain; format: in vivo, BALB/c mouse; conditions: subcutaneous, both first and second administrations
[6] = tested on: A/Singapore/GP1908/2015 strain; format: in vivo; conditions: transnasal, 10 μg adjuvant + 1 μg HA split antigen per shot, BALB/c mouse, both first and second administrations; versus adjuvant-free group (FIG. 3A)
[7] = tested on: B/Maryland/15/2016 strain; format: in vivo; conditions: transnasal, 10 μg adjuvant + 1 μg HA split antigen per shot, BALB/c mouse, both first and second administrations; versus adjuvant-free group; Mann-Whitney U test, p<0.05 (FIG. 3B)

Row | Substance | neutralizing antibody titer against A/Singapore/GP1908/2015 strain [1] | antigen-specific IgA titer in the nasal cavity wash against A/Singapore/GP1908/2015 strain [2] | antigen-specific IgA titer in the nasal cavity wash against B/Maryland/15/2016 strain [3] | blood antigen-specific IgG titer against A/Singapore/GP1908/2015 strain ([4]; 1 μg adjuvant + 1 μg HA split antigen per shot, BALB/c mouse, versus adjuvant-free group (FIG. 1A)) | blood antigen-specific IgG titer against A/Singapore/GP1908/2015 strain ([4]; 1 μg adjuvant per shot, compared to the CPP01 administration group (FIG. 1A)) | blood antigen-specific IgG titer against B/Maryland/15/2016 strain ([5]; 1 μg adjuvant + 1 μg HA split antigen per shot, BALB/c mouse, versus adjuvant-free group (FIG. 1B)) | blood antigen-specific IgG titer against B/Maryland/15/2016 strain ([5]; 1 μg adjuvant per shot, compared to the CPP01 administration group (FIG. 1B)) | blood antigen-specific IgG titer against A/Singapore/GP1908/2015 strain [6] | blood antigen-specific IgG titer against B/Maryland/15/2016 strain [7]
1 | GRKKRRQRRRPPQ (Human immunodeficiency virus) [CPP01, reference compound] | lowest value | lowest | lowest |  |  |  |  |  | 
2 | GRKKRRQRRRPPQ-G3PNA (C-terminal G3PNA conjugate; Human immunodeficiency virus) [MIP01] | highest value | highest | highest | higher as compared to that in the adjuvant-free group | showed a higher blood antigen-specific IgG titer | higher as compared to that in the adjuvant-free group | showed a higher blood antigen-specific IgG titer | higher as compared to that in the adjuvant-free group | higher as compared to that in the adjuvant-free group; also recorded: significant increase in antibody titer with respect to the adjuvant-free group
